{"source": "paper PMC4644980", "about": "“The FDA-approved natural product dihydroergocristine reduces the production of the Alzheimer’s disease amyloid-β peptides” (Scientific Reports, 2015)", "key": {"[1]": {"tested_on": "Aβ production in fibroblast cells from an AD patient", "test": "Aβ total ELISA of media from fibroblast cells from an AD patient (PS1 A246E)", "format": "cell-based, human", "experimental": "(§1) The levels of β-actin were used as equal loading controls. […] The Aβ data are expressed as a percentage of the control value and presented as the means ± sd. […] Fibroblast cells from an AD patient carrying the PS1 missense mutation A246E were treated with various compounds, and the levels of APP-FL, APP-CTF and β-actin, as well as Aβ, were measured as described above. The Aβ data are expressed as a percentage of the control value and presented as the means ± sd. (n = 3). […] The levels of β-actin served as equal loading controls. The densitometric quantifications for the Western Blots are shown in Supplementary Fig. S2. For full blots, please see Supplementary Fig. S9.\n(§2) Aβ1-x peptides secreted in the cell media were quantitatively measured by ELISA (IBL, Gunma, Japan) according to the standard protocol from the manufacturer. Aβ40 and Aβ42 generated in the C100-Flag γ-secretase assays stopped with 0.5% SDS (final concentration) were quantified with the human Beta Amyloid or [1–42] colorimetric ELISA kit, respectively."}, "[2]": {"tested_on": "endogenous γ-secretase in fibroblast cells from an AD patient", "test": "Western blot of APP-CTF in fibroblast cells from an AD patient (PS1 A246E)", "format": "cell-based, human", "conditions": "dose series", "quoted_text": "Fibroblast cells from an AD patient carrying the PS1 missense mutation A246E were treated with various compounds, and the levels of APP-FL, APP-CTF and β-actin, as well as Aβ, were measured as described above. […] (n = 3). […] The levels of β-actin served as equal loading controls.\n(§3) Western Blot analysis of full-length APP, APP-CTFs, Notch1-NICD and γ-secretase components was carried out according to the procedures described in the Supplementary information[31]."}, "[3]": {"tested_on": "γ-secretase subunits (mNCT, PS1-NTF)", "test": "Western blot of γ-secretase subunits in HEK293 or fibroblast cells", "format": "cell-based", "experimental": "for 10 min before adding 25 µl of the stop solution. The fluorescence was monitored with a microplate reader (emission at 590 nm after excitation at 560 nm).\nWestern blot and antibodies\nWT HEK293 or fibroblast cells were collected and lysed in 1% Nonidet P-40-HEPES buffer, and equal amounts of proteins [normalized by BCA (Pierce)] were separated by SDS-PAGE onto a 12% Tris-glycine gel, transferred onto a PVDF membrane (Bio-Rad, USA) and further probed with antibody CT15 (for APP/APP-CTFs, 1:2000, […]\n(1:1000; Abcam, Cambridge, MA, USA) for PS1-NTF, UD-1 (for Pen-2, 1:500; a gift of Dr. Helena Karlström, Karolinska Institute, Sweden), NCT164 (for NCT, 1:1000; BD Bioscience, Bedford, MA, USA) as well as with an antibody for β-actin (1:2000, Abmart). For the analysis of Notch NICD, cell extracts were separated by SDS-PAGE onto a 10% Tris-glycine gel, transferred onto a PVDF membrane and blotted for NICD with an anti-Notch Ab1744 antibody (for the free N-terminus of NICD, 1:500, Cell Signaling Technology, Beverly, MA, USA).\nSamples from in vitro γ-secretase activity assays were run on 16% Tricine-SDS-PAGE gels and transferred onto PVDF to detect Aβ and AICD-Flag with 6E10 (1:1000, Covance, Berkeley, CA, USA) and CT15 antibodies (1:5000, Sigma-Aldrich), […]"}, "γ-secretase": {"target": "γ-secretase (Homo sapiens, UniProt P49768+Q92542)", "test": "cell-based luciferase reporter assay for γ-secretase inhibition (T100 cells)", "design": "endogenous in cells; host or cells: T-REx HeLa cells (T100) stably transfected with the substrate C99-Gal4-VP16 and a luciferase reporter", "conditions": "24 h, read-out: IC50, inhibition of APP-C99 processing", "experimental": "To identify natural product-based bioactive inhibitors of γ-secretase, we screened 417 natural products by using a cell-based luciferase reporter assay for γ-secretase inhibition (T100, see Methods), which we recently developed in TREx HeLa cells according to the methodology described in ref. [17]. […] Thus, this assay is sufficiently sensitive to detect the inhibitory effects of 100 nM DAPT on cellular γ-secretase activity. Additionally, this new cell-based assay tolerated up to 2% DMSO, which is a great advantage when screening inhibitors in a high-throughput format.\nT-REx-HeLa cells (T100) stably overexpressing C99-Gal4-VP16 and luciferase were generated according to the method described in refs [17],[30]. For details, see Supplementary Information.\nCell-based γ-secretase assays were performed using the T100 cell line according to the methods detailed in ref. [30] (for details, see Supplementary information). […]\nconcentrations of substrate at 37 °C for 4 h, after which the enzymatic reactions were stopped by adding 0.5% SDS (final concentration). The samples were analyzed by Western Blot for AICD-Flag or Aβ. […]"}, "[4]": {"tested_on": "Aβ production in HEK293 cells", "test": "Aβ total ELISA of media from HEK293 cells", "format": "cell-based", "experimental": "as §1, §2"}, "[5]": {"tested_on": "γ-secretase (APP-CTF processing) in HEK293 cells", "test": "Western blot of endogenous APP-FL and APP-CTF in HEK293 cells", "format": "cell-based", "conditions": "24 h", "quoted_text": "(§4) The levels of β-actin were used as equal loading controls. […] The levels of β-actin served as equal loading controls.\nas §3"}, "[6]": {"tested_on": "human Notch1 extracellular truncation (NEXT) cleavage by γ-secretase", "test": "cleavage of human Notch1 NEXT (NICD Western blot) in HEK293 cells", "format": "cell-based", "quoted_text": "as §4, §3"}}}
{"smiles": "C[C@H](NC(=O)Cc1cc(F)cc(F)c1)C(=O)N[C@H](C(=O)OC(C)(C)C)c1ccccc1", "note": "[DAPT, N-[N-(3,5-difluorophenylacetyl)-L-alanyl-]-(S)-phenylglycine-t-butyl ester]", "values": [{"measurement": "total Aβ levels", "setting": "[1]", "value": "markedly reduced"}, {"measurement": "accumulation of APP-CTFs", "setting": "[2]", "value": "dose-dependent accumulation"}, {"measurement": "assembly and maturation of the protease complex (mNCT, PS1-NTF)", "setting": "[3]", "value": "not altered"}, {"measurement": "IC50", "setting": "γ-secretase", "value": "~200", "unit": "nM"}, {"measurement": "total Aβ levels", "setting": "[4]", "value": "markedly reduced"}, {"measurement": "accumulation of the carboxy-terminal fragments of APP (APP-CTFs)", "setting": "[5]", "value": "dose-dependent accumulation"}, {"measurement": "preference for APP-based versus Notch-based substrate", "setting": "[6]; HEK293 cells overexpressing hAPP or Notch1-NEXT", "value": "showed no preference"}, {"measurement": "production of intracellular human NICD", "setting": "[6]; HEK293 cells overexpressing human NEXT, 1 μM", "value": "completely blocked"}]}
